Measured values: patent US7169763B2, “Cytochrome P450 3A inhibitors and enhancers” (priority 2002, dated 2007)

Tests used:
[1] = system: CYP3A; parameters: CYP3A Activity (percentage of control): dose or concentration left out as unconfirmed
[2] = given by mouth; cited from earlier work

| SMILES | inhibitory effects on rat liver CYP3A (in words) [1] | CYP3A Activity (percentage of control) ([1]; rat, 15 min, 10.22) | fraction of active ingredient quickly changed to metabolites [2] [%] |
| --- | --- | --- | --- |
| O=C/C=C/c1ccccc1 [Trans-cinnamaldehyde] | particularly effective | 30.95 ± 1.03 percentage of control | – |
| CC(C)(C)c1ccc(C(O)CCCN2CCC(C(O)(c3ccccc3)c3ccccc3)CC2)cc1 (stereo not drawn) [terfenadine] | – | – | 99.5 |
